# What was measured:
# Format in all cases: functional
# [1] = system: Mycobacterium tuberculosis; assay: Antimycobacterial activity against Mycobacterium tuberculosis H37Rv ATCC […] by microplate alamar blue assay; details: 168 h, time 7 day
# [2] = system: Mycobacterium tuberculosis; assay: Antimycobacterial activity against Mycobacterium tuberculosis H37Rv incubated for 5 days by microplate alamar blue assay; details: 120 h, time 5 day
# [3] = system: Mycobacterium tuberculosis; assay: Antimycobacterial activity against Mycobacterium tuberculosis H37Rv by microplate alamar blue assay
# [4] = system: Mycobacterium tuberculosis; assay: Antimycobacterial activity against Mycobacterium tuberculosis H37Rv by filter paper disc diffusion method
# [5] = system: Mycobacterium tuberculosis; assay: Antimycobacterial activity against Mycobacterium tuberculosis H37Rv by Lowenstein-Jensen method relative to control
# [6] = system: Mycobacterium tuberculosis; assay: Antimycobacterial activity against Mycobacterium tuberculosis H37Ra ATCC 25177 incubated for 7 days by microplate alamar blue assay; details: H37Ra ATCC 25177, 168 h, time 7 day
# [7] = system: Mycobacterium tuberculosis; assay: Antimycobacterial activity against Mycobacterium tuberculosis H37Rv ATCC27294 measured after 28 days by two-fold serial dilution method; details: H37Rv ATCC 27294, 672 h, time 28 day
smiles,measurement,setting,value
COc1ccc(C2SCC(=O)N2C2=NN3C(=CSC3c3ccc(N(C)C)cc3)S2)cc1 (stereo not given),MIC,[1],3.12 mg/L
Cc1ccc(C2SC=C3SC(N4C(=O)CSC4c4ccccc4C)=NN32)cc1 (stereo not given),MIC,[1],3.12 mg/L
O=C1CSC(c2ccc(-n3cncn3)cc2)N1Nc1ccccc1 (stereo not given),MIC,[2],14.3 µM
Cc1ccc2oc(=O)cc(C3SCC(=O)N3c3ccccc3)c2c1 (stereo not given),MIC,[3],25 mg/L
O=C1CSC(c2ccc(Br)cc2)N1C(=O)NCCCn1ncc2ccc([N+](=O)[O-])cc21 (stereo not given),MIC,[4],5.25 mg/L
O=C(NCCCn1ncc2ccc([N+](=O)[O-])cc21)N1C(=O)/C(=C/c2ccc(Cl)cc2)SC1c1ccc(Cl)cc1 (stereo not given),MIC,[4],3.25 mg/L
O=C1CSC(c2ccccc2Cl)N1C(=O)NCCCn1ncc2ccc([N+](=O)[O-])cc21 (stereo not given),MIC,[4],4.25 mg/L
O=C(NCCCNc1ncc([N+](=O)[O-])s1)N1C(=O)/C(=C/c2ccccc2Br)SC1c1ccccc1Br (stereo not given),MIC,[5],6.25 mg/L
O=C1NC(=S)S/C1=C\c1cccc([N+](=O)[O-])c1,MIC,[2],0.05 mg/L
O=C1NC(=S)S/C1=C\c1ccc[nH]1,MIC,[2],0.2 mg/L
O=C1CSC(c2c(-c3ccccc3)[nH]c3ccccc23)N1c1nc(-c2ccccc2)cs1 (stereo not given),MIC,[2],50 mg/L
O=C(CC1SC(=O)NC1=O)Oc1ccc(/C=N/NC(=S)Nc2ccc(Cl)cc2)cc1 (stereo not given),MIC,[6],2 mg/L
O=C(O)c1ccc(N2C(=O)CSC2c2ccc(F)cc2)cc1O (stereo not given),MIC,[3],6.25 mg/L
Nc1ccc([N+](=O)[O-])cc1N1C(=O)/C(=C/c2ccccc2)SC1=S,MIC,[2],12.5 mg/L
O=C(NCCCNc1ncc([N+](=O)[O-])s1)N1C(=O)/C(=C/c2cccc(Br)c2)SC1c1cccc(Br)c1 (stereo not given),MIC,[5],2.75 mg/L
COc1ccc(/C=C2\SC(=S)NC2=O)cc1,MIC,[2],0.1 mg/L
O=C1CSC(c2ccccc2)N1C1=NN2C(=CSC2c2ccc(O)cc2)S1 (stereo not given),MIC,[1],6.25 mg/L
Cc1ccc(C2SC=C3SC(N4C(=O)CSC4c4ccccc4)=NN32)cc1 (stereo not given),MIC,[1],625 mg/L
CN[C@@H]1[C@H](O[C@H]2[C@H](O[C@H]3[C@H](O)[C@@H](O)[C@H](N=C(N)N)[C@@H](O)[C@@H]3N=C(N)N)O[C@@H](C)[C@]2(O)C=O)O[C@@H](CO)[C@H](O)[C@H]1O [STREPTOMYCIN],MIC,[1],6.25 mg/L
same,MIC,[2],6.25 mg/L
same,MIC,[3],6.25 mg/L
COc1cc(/C=N/NC(=S)Nc2cccc(Cl)c2)ccc1OC(=O)/C=C1\SC(=O)NC1=O,MIC,[6],2 mg/L
O=C(NCCCNc1ncc([N+](=O)[O-])s1)N1C(=O)/C(=C/c2cccc([N+](=O)[O-])c2)SC1c1cccc([N+](=O)[O-])c1 (stereo not given),MIC,[5],2.5 mg/L
N=C1S/C(=C\c2ccccc2F)C(=O)N1c1cccc(C(F)(F)F)c1,MIC,[7],4.25 µM
O=C1CSC(c2cccc(Cl)c2)N1C(=O)NCCCn1ncc2ccc([N+](=O)[O-])cc21 (stereo not given),MIC,[4],4.5 mg/L
O=C(NCCCn1ncc2ccc([N+](=O)[O-])cc21)N1C(=O)/C(=C/c2ccccc2)SC1c1ccccc1 (stereo not given),MIC,[4],6.25 mg/L
O=C(NCCCn1ncc2ccc([N+](=O)[O-])cc21)N1C(=O)/C(=C/c2ccccc2Br)SC1c1ccccc1Br (stereo not given),MIC,[4],4.25 mg/L
N=C1S/C(=C\c2ccccc2F)C(=O)N1c1ncc([N+](=O)[O-])s1,MIC,[7],3.9 µM
O=C1CSC(c2ccc(Cl)cc2)N1C(=O)NCCCn1ncc2ccc([N+](=O)[O-])cc21 (stereo not given),MIC,[4],4.75 mg/L
O=C1CSC(c2ccc(-n3ccnc3)cc2)N1Nc1ccccc1 (stereo not given),MIC,[2],14.3 µM
O=C1CSC(c2ccccc2Cl)N1C1=NN2C(=CSC2c2ccccc2)S1 (stereo not given),MIC,[1],3.12 mg/L
COc1ccccc1C1SCC(=O)N1C1=NN2C(=CSC2c2ccc(N(C)C)cc2)S1 (stereo not given),MIC,[1],3.12 mg/L
O=C1CSC(c2ccccc2[N+](=O)[O-])N1C(=O)NCCCn1ncc2ccc([N+](=O)[O-])cc21 (stereo not given),MIC,[4],3.75 mg/L
O=C1N/C(=N\c2ccc(S(=O)(=O)Nc3cc(Cl)c(Cl)cc3Cl)cc2)S/C1=C\c1ccc(O)cc1,MIC,[3],3.12 mg/L
Cc1ccc(C2SC=C3SC(N4C(=O)CSC4c4ccc(C)cc4)=NN32)cc1 (stereo not given),MIC,[1],1.6 mg/L
COc1cc(/C=N/NC(=S)Nc2ccc(Cl)cc2)ccc1OC(=O)CC1SC(=O)NC1=O (stereo not given),MIC,[6],2 mg/L
O=C(NCCCn1ncc2ccc([N+](=O)[O-])cc21)N1C(=O)/C(=C/c2ccccc2Cl)SC1c1ccccc1Cl (stereo not given),MIC,[4],2.25 mg/L
O=C(NCCCn1ncc2ccc([N+](=O)[O-])cc21)N1C(=O)/C(=C/c2cccc(Br)c2)SC1c1cccc(Br)c1 (stereo not given),MIC,[4],1.25 mg/L
Cc1ccc(/C=C2\SC(=S)N(Cc3nc4ccccc4[nH]3)C2=O)cc1,MIC,[3],6.25 mg/L
COc1ccc(/C=C2\SC(=N)N(c3ncc([N+](=O)[O-])s3)C2=O)cc1,MIC,[7],3.78 µM
CC[C@@H](CO)NCCN[C@@H](CC)CO [ETHAMBUTOL],MIC,[7],7.64 µM
N=C1S/C(=C\c2ccccc2F)C(=O)N1c1nc2ccc([N+](=O)[O-])cc2s1,MIC,[7],4.26 µM
O=C1CSC(c2ccccc2)N1C1=NN2C(=CSC2c2ccccc2)S1 (stereo not given),MIC,[1],6.25 mg/L
O=C1CSC(c2ccccc2Br)N1C(=O)NCCCn1ncc2ccc([N+](=O)[O-])cc21 (stereo not given),MIC,[4],4.75 mg/L
Cc1ccc(C2SC(C)C(=O)N2c2nc(N3CCN(C)CC3)n[nH]2)cc1 (stereo not given),MIC,[3],≤ 1 mg/L
O=C1CSC(c2cccc(Br)c2)N1C(=O)NCCCn1ncc2ccc([N+](=O)[O-])cc21 (stereo not given),MIC,[4],4.5 mg/L
O=C1CSC(c2ccccc2O)N1C1=NN2C(=CSC2c2ccc(O)cc2)S1 (stereo not given),MIC,[1],3.12 mg/L
O=C1/C(=C/c2ccccc2)SC(=S)N1Cc1nc2ccccc2[nH]1,MIC,[3],6.25 mg/L
COc1ccc(N2C(=O)CSC2c2cc(=O)oc3ccc(C)cc23)cc1 (stereo not given),MIC,[3],25 mg/L
O=C(NCCCn1ncc2ccc([N+](=O)[O-])cc21)N1C(=O)/C(=C/c2ccc(Br)cc2)SC1c1ccc(Br)cc1 (stereo not given),MIC,[4],2.5 mg/L
O=C1CSC(c2ccc(Cl)cc2)N1C1=NN2C(=CSC2c2ccccc2)S1 (stereo not given),MIC,[1],3.12 mg/L
O=C1CSC(c2cccc([N+](=O)[O-])c2)N1C(=O)NCCCn1ncc2ccc([N+](=O)[O-])cc21 (stereo not given),MIC,[4],4.25 mg/L
CN(C)c1ccc(/C=C2\SC(=S)N(c3ccc(C=O)cc3)C2=O)cc1,MIC,[2],12.5 mg/L
NC(=O)c1cnccn1 [PYRAZINAMIDE],MIC,[1],3.12 mg/L
same,MIC,[2],3.12 mg/L
N=C1S/C(=C\c2cc([N+](=O)[O-])cs2)C(=O)N1c1nc2ccc([N+](=O)[O-])cc2s1,MIC,[7],6.52 µM
CN(C)c1ccc(C2SC=C3SC(N4C(=O)CSC4c4ccccc4)=NN32)cc1 (stereo not given),MIC,[1],6.25 mg/L
N=C1S/C(=C\c2cc([N+](=O)[O-])co2)C(=O)N1c1cccc(C(F)(F)F)c1,MIC,[7],4.07 µM
COc1cc(/C=N/NC(=S)Nc2ccccc2)ccc1OC(=O)CC1SC(=O)NC1=O (stereo not given),MIC,[6],2 mg/L
COc1ccc2oc(=O)cc(C3SCC(=O)N3c3ccc(Cl)cc3)c2c1 (stereo not given),MIC,[3],25 mg/L
COc1cc(/C=C2\SC(=N)N(c3ncc([N+](=O)[O-])s3)C2=O)cc(OC)c1OC,MIC,[7],3.31 µM
O=C(NCCCn1ncc2ccc([N+](=O)[O-])cc21)N1C(=O)/C(=C/c2cccc(Cl)c2)SC1c1cccc(Cl)c1 (stereo not given),MIC,[4],1.5 mg/L
O=C(NCCCNc1ncc([N+](=O)[O-])s1)N1C(=O)/C(=C/c2ccccc2Cl)SC1c1ccccc1Cl (stereo not given),MIC,[5],2.5 mg/L
COc1ccc(/C=C2\SC(=N)N(c3cccc(C(F)(F)F)c3)C2=O)cc1,MIC,[7],4.12 µM
O=C(NCCCNc1ncc([N+](=O)[O-])s1)N1C(=O)/C(=C/c2ccc([N+](=O)[O-])cc2)SC1c1ccc([N+](=O)[O-])cc1 (stereo not given),MIC,[5],2.5 mg/L
COc1ccc(/C=C2\SC(=S)N(c3cc([N+](=O)[O-])ccc3N)C2=O)cc1,MIC,[2],12.5 mg/L
Cc1ccc(NN2C(=O)CSC2c2ccc(-n3ccnc3)cc2)cc1 (stereo not given),MIC,[2],14.3 µM
N=C1S/C(=C\c2cc([N+](=O)[O-])cs2)C(=O)N1c1ncc([N+](=O)[O-])s1,MIC,[7],7.21 µM
O=C1CSC(c2ccc([N+](=O)[O-])cc2)N1C(=O)NCCCn1ncc2ccc([N+](=O)[O-])cc21 (stereo not given),MIC,[4],4.25 mg/L
O=C(NN1C(=O)CSC1c1c(-c2ccccc2)[nH]c2ccccc12)c1[nH]c2ccc(Cl)cc2c1-c1ccccc1 (stereo not given),MIC,[2],12.5 mg/L
O=C(NCCCn1ncc2ccc([N+](=O)[O-])cc21)N1C(=O)/C(=C/c2ccc([N+](=O)[O-])cc2)SC1c1ccc([N+](=O)[O-])cc1 (stereo not given),MIC,[4],1.5 mg/L
N=C1S/C(=C\c2ccc(OCc3ccccc3)cc2)C(=O)N1c1ncc([N+](=O)[O-])s1,MIC,[7],6.4 µM
COc1ccc(/C=C2\SC(=S)N(c3ccc(N)cc3)C2=O)cc1,MIC,[2],12.5 mg/L
O=C1CSC(c2ccc(O)cc2)N1C1=NN2C(=CSC2c2ccc(O)cc2)S1 (stereo not given),MIC,[1],1.6 mg/L
O=C(NCCCn1ncc2ccc([N+](=O)[O-])cc21)N1C(=O)/C(=C/c2ccccc2[N+](=O)[O-])SC1c1ccccc1[N+](=O)[O-] (stereo not given),MIC,[4],2.25 mg/L
O=C(NCCCNc1ncc([N+](=O)[O-])s1)N1C(=O)/C(=C/c2cccc(Cl)c2)SC1c1cccc(Cl)c1 (stereo not given),MIC,[5],2.75 mg/L
CN1CCN(c2n[nH]c(N3C(=O)CSC3c3ccc4c(c3)OCO4)n2)CC1 (stereo not given),MIC,[3],≤ 1 mg/L
O=C1CSC(c2c(-c3ccccc3)[nH]c3ccccc23)N1c1nc(-c2ccc(Cl)cc2)cs1 (stereo not given),MIC,[2],50 mg/L
O=C1/C(=C/c2ccc(O)cc2)SC(=S)N1Cc1nc2ccccc2[nH]1,MIC,[3],6.25 mg/L
COc1cc(/C=C2\SC(=N)N(c3nc4ccc([N+](=O)[O-])cc4s3)C2=O)cc(OC)c1OC,MIC,[7],7.4 µM
O=C1/C(=C/c2ccc(F)cc2)SC(=S)N1Cc1nc2ccccc2[nH]1,MIC,[3],6.25 mg/L
O=C1CSC(c2ccc3c(c2)OCO3)N1c1nc(N2CCOCC2)n[nH]1 (stereo not given),MIC,[3],≤ 1 mg/L
COc1cc(/C=N/NC(=S)Nc2ccccc2)ccc1OC(=O)/C=C1\SC(=O)NC1=O,MIC,[6],2 mg/L
N=C1S/C(=C\c2ccc(OCc3ccccc3)cc2)C(=O)N1c1cccc(C(F)(F)F)c1,MIC,[7],6.88 µM
COc1cc(/C=N/NC(=S)Nc2cccc(Cl)c2)ccc1OC(=O)CC1SC(=O)NC1=O (stereo not given),MIC,[6],2 mg/L
N=C1S/C(=C\c2cc([N+](=O)[O-])co2)C(=O)N1c1nc2ccc([N+](=O)[O-])cc2s1,MIC,[7],6.81 µM
O=C(NCCCn1ncc2ccc([N+](=O)[O-])cc21)N1C(=O)/C(=C/c2cccc([N+](=O)[O-])c2)SC1c1cccc([N+](=O)[O-])c1 (stereo not given),MIC,[4],1.75 mg/L
COc1cc(/C=C2\SC(=N)N(c3cccc(C(F)(F)F)c3)C2=O)cc(OC)c1OC,MIC,[7],7.11 µM
O=C1CSC(c2ccccc2)N1C(=O)NCCCn1ncc2ccc([N+](=O)[O-])cc21 (stereo not given),MIC,[4],7.5 mg/L
N=C1S/C(=C\c2cc([N+](=O)[O-])co2)C(=O)N1c1ncc([N+](=O)[O-])s1,MIC,[7],7.49 µM

# From ChEMBL document CHEMBL4813957, “Antitubercular properties of thiazolidin-4-ones - A review” (Eur J Med Chem, 2021)
